For data set [1], the system named is headache caused by nitroglycerin. The data set can be described thus: Nitroglycerin-induced headache rat model. It is filed as in vivo, Wistar rats. As to conditions: rats, 10 mg/kg i.p. 1 h before nitroglycerin (FIG. 5). As for the experimental part: In the Experimental example, compounds to be evaluated or compounds to be tested or test compounds used are the Compounds 1-46 prepared in the Examples according to the invention. In the Experimental example, all the agents for injection, including compounds to be evaluated or compounds to be tested or test compounds, and positive control drug, were dissolved in a mixed solvent of PEG400:Tween 80:normal saline (at a volume ratio of 5:5:90), at a concentration of 5 mg/mL.
Nitroglycerin-induced headache rat model was a common model for studying inflammatory pain medically. The model was used in the invention to evaluate the therapeutic effects of the compounds on headache. The model can represent mixed pain including, but not only limited to: migraine, cluster headache, tension headache syndrome, prosopodynia, lumbodynia, shoulder pain, burning mouth syndrome, and complex regional pain syndrome.
Experimental Wistar rats with a body weight of about 250 g for each (purchased from Shanghai SLAC Laboratory Animal Co., Ltd) were in an experimental environment with free access to food and water for 1 week. The rats were fasted for 24 h before administration. The compound to be evaluated (10 mg/kg) was intraperitoneally injected to the rat at 1 h before the administration of nitroglycerin, wherein the positive control drug was indomethacin and the blank control was normal saline. Nitroglycerin (10 mg/kg, nitroglycerin dissolved in normal saline, at a concentration of 5%) was injected at epidermis of the rat neck, and the rats were then placed in the observation cage. A video camera was used to record the behavior of the rats in the following 60 min. Pain-related behavior was analyzed statistically based on the times that the rat scratched its head in said period.

Data set [2] is described as follows: Stability assays at acidic and basic conditions. It is filed as physicochemical. As for the experimental part:
The sample containing the compound to be tested was then incubated in a constant temperature shaker at 37° C. At different time points (0 min, 10 min, 30 min, 1 h, 2 h, 4 h, 6 h, 12 h, 24 h), 50 μL sample was taken and added to 150 μL precooled methanol (containing the internal standard E8, 1 nmol/sample), wherein three parallel samples were prepared for each time point. The samples were then vertically mixed well, and transferred to a sample vial. LC-MS/MS was used to measure the peak area at different time points, Analyst® version 1.4.1. software was used to analyze chromatographic peak, and the content of the target compound was calculated based on the standard curve.

Where [3] appears, read: PBS pH 5.0, 37° C., read-out: Half-life pH 5.0.
Setting [4] is: PBS pH 7.4, 37° C., read-out: Half-life pH 7.4.

Structures are written as SMILES. Read-outs that look alike come from different tables or passages of the source.

What is called half-life is the time in which the quantity being followed falls by half.

Regarding `O=C(CCCCCc1cccc(Cl)c1)N1CCOC1=O` [Compound 9, 3-Chlorophenylhexanoyl Oxazolidinone], in data set [1], the “effect of inhibiting nitroglycerin-induced headache” value is “significant effects of inhibiting nitroglycerin-induced headache in rats”. The half-life at 1 μM in data set [2] (setting [3]) and in data set [2] (setting [4]) was above 24 h each time.

For the compound `O=C(CCCCCc1ccccc1)N1CCOC1=O` [Compound 2, Phenylhexanoyl Oxazolidinone], the “effect of inhibiting nitroglycerin-induced headache” value in data set [1] is recorded as “significant effects of inhibiting nitroglycerin-induced headache in rats”. The half-life at 1 μM in data set [2] (setting [3]) and in data set [2] (setting [4]) was above 24 h in each case.

These data come from US10174015B2, “Substituted heterocyclic derivative, preparation method and use thereof” (Xiamen University, priority 2014, dated 2019).
